Laboratory results as given in patent EP0007294A2, “Membrane stabilizing compounds having beta-receptor blocking activity, their preparation, method for treatment of arrhythmic conditions, and pharmaceutical preparations containing same” (priority 1978, dated 1980).
Like-named read-outs stand apart in the source and are kept apart here.

Key:
[1] = test system: ouabain-induced arrhythmias; experiment: Ouabain-induced arrhythmias in anesthetized guinea-pigs; assay type: in vivo; conditions: for A-A EFFECT IN NUMBER OF ANIMALS: animals with antiarrhythmic effect / animals tested; for LOWEST FREQUENCY: frequency of ventricular premature beats after test solution; for ASYSTOLE: time of asystole under continued ouabain; for V-FIB: time of ventricular fibrillation under continued ouabain
Experimental: Guinea-pigs of either.sex (300-400 g) were anesthetized with urethane 1,4 g/kg i.p. and tracheotomized. ECG, lead II was picked up with needle electrodes and was registered continuously throughout the experiment. Two i.v. catheters were inserted: one for the administration of ouabain, the other for the test solution.
The experimental design for the study of antiarrhythmic activities is schematically shown in the head of Table 2. The arrhythmia was induced by automatic infusion of ouabain, 18 µg/kg/60" every two minutes for twelve minutes and thereafter 9 µg/kg/30" every two minutes throughout the whole experiment and the infusion was not stopped until asystole occurred. As soon as the frequency of ventricular premature beats (VPB) had passed 50 per cent, the test solution was given i.v. (0,2 ml/min) during 2 min. (see head of Table 2).

[2] = Conscious dogs with ligation of a coronary artery according to Harris: ectopics and convulsions; assay type: in vivo; conditions: in vivo
Excerpt: (§1) Male beagle dogs, 7-13 kg, undergo two days prior to the test a surgical ligation of a coronary artery. On the day of the test the conscious dog is secured in a canvas sling in a standing position and given increasing doses of the test compounds by intravenous administration. ECG, blood pressure etc are monitored and attention is paid to all CNS-effects. The dogs have almost 100 percent of ectopics prior to administration of the compound to be tested. Effects of the test drug on the frequency of ectopics are calculated from ECG. The accumulative end doses giving 50% and 90% reduction of ectopics as well as the ED50 values which give convulsions (side-effect) are measured and given below in Table 3. The value for convulsions is a mean value for 3-5 dogs.
(§2) x) The value given is the final value in a series of doses 0.5 + 1 + 2 + 4 + 8 mg/kg i.v. giving 50% reduction of ectopics. 30 min interval between doses.
(§3) Table 3: Antiarrythmic effect and CNS-effects of four β-receptor blockers, a membrane stabilizer, and ten new compounds with combined β-blocking and membrane stabilizing effect.

ectopics = experiment: as above; assay type: in vivo; conditions: Canis lupus familiaris, iv.; for ED50: accumulative end dose giving 50% reduction of ectopics, read-out: Conscious dog Harris ligation Ectopics -50%; for ED90: accumulative end dose giving 90% reduction of ectopics, read-out: Conscious dog Harris ligation Ectopics -90%
Excerpt: as §1, §2, §3

[3] = test system: chloroform-induced ventricular arrhythmias; experiment: Chloroform-induced ventricular arrhythmias (fibrillation) in mice, intraperitoneal dose; conditions: for Number of Animals Protected: protected against CHCl3-induced ventricular fibrillation
Excerpt: Mice were given an intraperitoneal dose of the test compound. Twenty minutes after dose, they were suffocated in chloroform vapor.- When the animals stopped breathing, the chest was opened to inspect for fibrillation. If the heart was not fibrillating, it was prodded.
Signs of CNS toxicity were noted during the 20-minute interval between dosing and challenge.
"Protected" means number of animals protected against CHC13- induced ventricular fibrillation.

[4] = Alternative chloroform test on mice: ventricular tachycardia inhibition and ataxia; assay type: in vivo; conditions: mouse, in vivo
Experimental: (§4) In an alternative chloroform test on mice the ventricular tachycardia inhibition by the test compounds are observed. Thereby the test solution is given subcutaneous and the animal is observed for CNS-effects for 20 min. The mouse is put into a chamber with chloroform until it stops breathing (approx 30 sec.). The animal is then secured on a cork-board and ECG is monitored. If the ventricular rythm is less than 520 beats per min., the animal was protected against ventricular tachycardia. Groups of 10 animals were tested for each dose-level'and the ED50-values have been calculated therefrom. During the test the side-effect ataxia (incordination of movements) is observed.
(§5) In Table 5, as shown, the new compounds tested exerted antiarrhythmic effects also in this te-st.

[5] = test system: chloroform induced ventricular tachy-cardia; experiment: as above; assay type: in vivo; conditions: Mus musculus; sc.; mice, chloroform; groups of 10 animals per dose-level
Experimental: as §4, §5

[6] = dose 100 mg/kg intraperitoneal, 10 treated

| Structure (SMILES) | A-A EFFECT IN NUMBER OF ANIMALS ([1]; dose 0.1 mg/kg i.v.) | A-A EFFECT IN NUMBER OF ANIMALS ([1]; dose 0.3 mg/kg i.v.) | LOWEST FREQUENCY ([1]; dose 0.1 mg/kg i.v.) | LOWEST FREQUENCY ([1]; dose 0.3 mg/kg i.v.) | ASYSTOLE ([1]; dose 0.1 mg/kg i.v.) | ASYSTOLE ([1]; dose 0.3 mg/kg i.v.) | V-FIB ([1]; dose 0.1 mg/kg i.v.) | V-FIB ([1]; dose 0.3 mg/kg i.v.) | ED50 (ectopics) | ED90 (ectopics) | Number of Animals Dead [3, 6] | Number of Animals Protected [3, 6] | ED50 [5] | further results |
| --- | --- | --- | --- | --- | --- | --- | --- | --- | --- | --- | --- | --- | --- | --- |
| COCCc1ccc(OCC(O)CNCCc2ccc(O)cc2)cc1 (centres unmarked) [Ex. 2] | 7/7 | 6/6 | 25±7% | 5±2% | 27 ± 3 min | 35 ± 3 min | 20 ± 2 min | 29 ± 2 min | 4 mg/kg | 8 mg/kg | 0 | 8 | 3 mg/kg | TD50 ([2]; dog, iv): 8 mg/kg; Number of Animals Convulsive ([3]; mouse, in vivo, ip, 100 mg/kg): 0; Number of Animals LRR ([3]; mouse, in vivo, ip, 100 mg/kg): 0; TD50 at 20 min ([4]; sc): > 13 mg/kg |
| CC(C)NCC(O)COc1cccc2ccccc12 (centres unmarked) [Propranolol] | 6/7 | 6/6 | 9±5% | 4±2% | 35 ± 4 min | 32 ± 5 min | 30 ± 5 min | 27 ± 6 min | 1 mg/kg | 3 mg/kg | 0 | 10 | 0.6 mg/kg | A-A EFFECT IN NUMBER OF ANIMALS ([1]; dose 0.03 mg/kg i.v.): 6/7; LOWEST FREQUENCY ([1]; dose 0.03 mg/kg i.v.): 29±5%; ASYSTOLE ([1]; dose 0.03 mg/kg i.v.): 29 ± 2 min; V-FIB ([1]; dose 0.03 mg/kg i.v.): 21 ± 3 min; TD50 ([2]; iv., conscious dog, mean value for 3-5 dogs, read-out: ED50 Convulsive): 8 mg/kg; Number of Animals Convulsive ([3]; dose 100 mg/kg intraperitoneal, 10 treated, convulsions within 20 minutes after dosing): 10; Number of Animals LRR ([3]; dose 100 mg/kg intraperitoneal, 10 treated, loss of righting reflex): 1; TD50 at 20 min ([4]; sc., mice, observed for 20 min, read-out: Ataxia ED50): > 1 mg/kg |
